Test system: SARS-CoV-2
Assay type: cell-based

| Compound | block of the cytopathic effect (CPE) of SARS-CoV-2 |
| --- | --- |
| COc1cccc2[nH]c(C(=O)N[C@@H](CC(C)C)C(=O)N[C@@H](C[C@@H]3CCNC3=O)C(=O)c3nc4ccccc4s3)cc12 [GRL-2420S] | significantly block the cytopathic effect |
| O=C(Oc1cncc(Cl)c1)c1cccc2c1CCN2 [CTRL-1720S] | significantly block the cytopathic effect |

Reference: patent publication US20230159516A1 (priority 2020, published 2023)
